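Each compound was tested at five concentrations against cells in 96-well plates for 48 hours. TGI is the concentration that stops growth completely.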 Bounds are passed on as bounds.

Test systems include XF 498 CNS; SN12K1 renal; HOP-18 NSCLC; LXFL 529 NSCLC; MDA-N; BT-549 breast; PC-3 prostate; DU-145 prostate; T-47D breast; HS 578T breast.
Common to all, as to assay: NCI anticancer screen, dose series, 48 h

For the molecule `Cc1ccc(N2Cc3c(ccc4ccccc34)OP2(=O)Oc2ccc(Cl)c(C)c2)cc1` (configuration not stated), the TGI in the experiment on XF 498 CNS, in the experiment with SN12K1 renal and with HOP-18 NSCLC was greater than 100 µM in each case.

In the case of `CC(C)OP(=O)(OC(C)C)/C(I)=N/Nc1ccc([N+](=O)[O-])cc1`, the TGI in the experiment on XF 498 CNS and in the experiment with LXFL 529 NSCLC was greater than 100 µM in each case.

In the case of `O=S(=O)(CCBr)CCBr`, the values for the TGI in the experiment with SN12K1 renal and in the experiment with HOP-18 NSCLC were 19.7 µM and 32 µM, respectively.

As for `COc1ccc(-n2cnnc2-c2nsc3ccccc23)cc1`, the TGI with HOP-18 NSCLC and in the experiment on LXFL 529 NSCLC was greater than 100 µM throughout.

`CCOP(=O)(OCC)/C(C#N)=C/c1cn(C)cn1`: the TGI in the experiment with MDA-N, in the experiment with BT-549 breast and in the experiment with PC-3 prostate was greater than 100 µM throughout.

For the molecule `Nc1nc(SCc2ccc([N+](=O)[O-])cc2)nc2c1ncn2C1OC(COP(=O)(O)O)C(O)C1O` (configuration not stated), the TGI in the experiment with XF 498 CNS and in the experiment on LXFL 529 NSCLC was greater than 100 µM each time.

Take `Cc1ccc(N=N/C(=N\NC(=O)c2ccc(C)cc2)c2ccc(N(CCC#N)CCC#N)cc2C)cc1`: the TGI is greater than 100 µM with MDA-N; greater than 100 µM in the experiment with DU-145 prostate; greater than 100 µM with T-47D breast; greater than 100 µM in the experiment on PC-3 prostate; 70 µM in the experiment with HS 578T breast.

For the molecule `CC(NC(=O)C(C)NC(=O)C(N)CCP(C)(=O)O)C(=O)O` (configuration not stated), the TGI in the experiment on XF 498 CNS, in the experiment on SN12K1 renal and with HOP-18 NSCLC was greater than 100 µM each time.

In the case of `CC1=Nc2nc(Cl)cn2C(=O)C1(Cl)Cl`, the TGI in the experiment on MDA-N, in the experiment on DU-145 prostate, in the experiment on T-47D breast, in the experiment on PC-3 prostate and in the experiment on HS 578T breast was greater than 10 µM throughout.
